Test results as given in patent publication US10821092B2, “Viscous topical ocular formulations” (Encompass Development, Inc., priority 2014, dated 2020).

Legend:
rabbit eye = test: Blink response to surface stimulation in rabbits: onset and duration of anesthesia; type: in vivo, New Zealand White Rabbits; conditions: as shown in the working examples
Description: This rabbit study was performed in order to evaluate various formulations. General guidelines for these studies are attached here as Attachment 1. This guideline defines the screening of six (6) formulations using two (2) different viscosity enhancing agents. The two agents selected were Carboxymethylcellulose (CMC) and Sodium Hyluronate (HA). The specifics of these formulations are described in Attachment 2.
A statistical analysis of the experimental results for both onset of action and the duration of anesthesia is provided below. The means were compiled and statistically compared to the controls in each individual formulation. The significance or non-significance is noted as (S=Significant P value <0.001, NS=Not Significant P Value >0.05). The duration results are summarized here in Table 1.
Six different formulations were tested and the onset and duration of action was evaluated.
The commercially available Tetracaine hydrochloride 0.5% Ophthalmic Solution was used as the control.
New Zealand White Rabbits were obtained from Harlan Sprague Dawley. They were housed in the animal facility at Mercer
Dosing was performed with the experimental formulation in one eye by dropping the formulation into the rabbit eye with the aid of a dropper and the standard marketed product was administered in the contra lateral eye as a control. Multiple experiments were run with the same group of rabbits. […]

[1] = cited from earlier work

SMILES: CCCCNc1ccc(C(=O)OCCN(C)C)cc1 [tetracaine]
- duration of anesthesia after administration to the eye (rabbit eye): up to 55 minutes
- onset of anesthesia ([1]; background statement on tetracaine ophthalmic solution): ≤ 30 s
- duration of anesthetic properties ([1]; background statement, cataract surgery): 15 to 20 min
